Among the data in US12116343B2, “Inhibitors of APOL1 and methods of using same” (Vertex Pharmaceuticals Incorporated, priority 2020, dated 2024) are IC50 values, retold here.

Molecules are shown by their SMILES. Some results are limits rather than exact numbers.

In the assay the target is T1, APOL1 G1 Protein (Homo sapiens, UniProt O14791, I384M/S342G).
T1 sequence (O14791 28-398 S342G/I384M): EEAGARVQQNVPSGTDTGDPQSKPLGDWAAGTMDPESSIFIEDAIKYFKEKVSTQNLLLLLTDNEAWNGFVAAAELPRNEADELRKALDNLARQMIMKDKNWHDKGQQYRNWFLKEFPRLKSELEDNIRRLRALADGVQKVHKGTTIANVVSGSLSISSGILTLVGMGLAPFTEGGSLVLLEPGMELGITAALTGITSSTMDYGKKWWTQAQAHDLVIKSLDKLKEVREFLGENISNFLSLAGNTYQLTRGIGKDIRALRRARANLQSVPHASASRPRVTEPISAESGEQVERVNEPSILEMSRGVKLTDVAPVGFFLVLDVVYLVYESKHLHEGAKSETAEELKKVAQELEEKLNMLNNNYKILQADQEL
Nature of the assay: Trypanosoma brucei brucei lysis assay using APOL1 recombinant protein (AlamarBlue viability). It counts as cell-based. To be noted: Trypanosoma brucei brucei lysis, recombinant APOL1, AlamarBlue; read-out: Trypanosoma Assay (IC50). From the text: Trypanosoma brucei brucei is a blood stream parasite to which human, gorillas and baboon are immune due to the presence of the APOL1 protein in their HDL particles. The protein is uptaken by the parasite via the TbHpHb receptor located in its flagellar pocket and is bonded by the Hpr protein contained in the HDL particles which triggers the receptor endocytosis by the parasite.
Following endocytosis, the formed vesicle containing the HDL particle matures from early to late endosome, and subsequently to lysosome. The concomitant pH change in the lumen of the vesicle triggers the insertion of the APOL1 protein into the membrane of the late endosome/lysosome and hereby triggers lysosomal membrane premeabilisation and as a further downstream event, trypanosome lysis. Trypanosoma brucei brucei is sensitive to lysis by all three APOL1 variants (G0, G1, and G2).
The Trypanosoma brucei brucei lysis assay is a lysis assay of the parasite using recombinant APOL1 protein variant followed by a fluorescent detection method of viability by the addition of AlamarBlue reagent to the assay well, a general metabolic redox indicator (AlamarBlue assay).
Briefly, the AlamarBlue active compound, the resazurin, a blue, water soluble, non-toxic and cell permeable molecule, which can be followed by absorbance, is reduced by various metabolic pathways into resorufin, a red compound which can be followed by either absorbance or fluorescence. The assay allows the calculation of the percent viability (percent of living Trypanosomes remaining in each well) at the end of a lysis relative to the untreated condition by interpolation of fluorescent values (FLU) on a standard curve with a known amount of seeded trypanosome/well.
Trypanosoma brucei brucei (ATCC, Cat. No. PRA-382) • Lister 427 VSG 221 bloodstream form.
Thaw/Expansion Media (ATCC Medium 2834 Modified HMI-9 Medium)
Assay Media (No Phenol Red/No FBS): Make on Day of Use
Hypoxanthine Stock (100×)-9 (10×)
Equipment • El-Clip Tip pipette 12 channel adjustable 2-125 μL, Cat. No. 4672070BT • ThermoFisher MultiDrop 384, Cat. No. 5840300 • Multidrop • Agilent Bravo, Cat. No. G5409A • Bravo • SpectraMax M5
Assay Ready Plates (ARPs) • ARPs comes in two formats: • […] final top concentration with a 2.5 fold dilution down. • […] final top concentration with a 3 fold dilution down. • Both have a 10 point Dose response. • 0.1% DMSO final in the Black Assay Plate. • Compounds are diluted 1000 fold in the Black Assay Plate. • Each plate is designed for 14 compounds in duplicate. • In the final Black Assay Plate:
Trypanosoma brucei brucei Culture
Step 2, Day 4 • Centrifuge at 800×g for 5 minutes at room temperature. • Resuspend in 1 mL media. • Make a 1:25 fold dilution (10 μL/240 μL media). • Count on a hemocytometer (after adding parasites). • Let sit for 1-2 minutes for the parasites to settle. • Count should be approximately 100 viable motile parasites/16 grid or approximately 25×10^6 parasites/flask. • Passage the parasites by adding 1×10^6 parasites/T75 flask in 20 mL media. • Passage the parasites by adding 2.33×10^6 parasites/T175 flask in 46.6 mL media. • For every T75 flask should make enough for approximately 1.5×384 well assay plates. • For every T175 flask should make enough for approximately 3.8×384 well assay plates.
Step 3, Day 6 • Centrifuge at 800×g for 5 minutes. • Resuspend in 3 mL assay media (No phenol red, no FBS) per 75 starting flask. • Resuspend in 7 mL assay media (No phenol red, no FBS) per 175 flask • Make a 1:25 fold dilution. • Count by hemocytometer. • Every T75 flask set up should have approximately 75×10^6 parasites/flask (verify doubling time=8.7 hrs±1 hr). • Every T175 flask set up should have approximately 175×10^6 parasites/flask (verify doubling time=8.7 hrs±1 hr). • Require 46×10^6 parasites per 384 well plate (at 120,000 parasites per well). Protocol B […]
Consider `CNC(=O)C(C)NC(=O)[C@H]1C[C@H](c2c(-c3ccc(F)cc3)[nH]c3c(F)cc(F)cc32)C1` (mixture of isomers) [Compound 9], for which the IC50 lay in the range of 250 to 1000 nM. The same measure for `CCN(C(=O)[C@H]1C[C@H](c2c(-c3ccc(F)cc3)[nH]c3c(F)cc(F)cc32)C1)C(C)CO` (mixture of isomers) [Compound 111]: 250 to 1000 nM.

Regarding `CC(CO)N1CCN(C(=O)[C@H]2C[C@H](c3c(-c4ccc(F)cc4)[nH]c4c(F)cc(F)cc43)C2)CC1` (mixture of isomers) [Compound 122], the IC50 is over 1000 nM. In the case of `CC(O)CN(CCO)C(=O)[C@H]1C[C@H](c2c(-c3ccc(F)cc3)[nH]c3c(F)cc(F)cc32)C1` (mixture of isomers) [Compound 129], the IC50 was under 250 nM.

As for `O=C(NC1CC(O)C1)[C@H]1C[C@H](c2c(-c3ccc(F)cc3)[nH]c3c(F)cc(F)cc32)C1` (stereo partly drawn) [Compound 5], the IC50 lay in the range of 250 to 1000 nM. In the case of `O=C(NC1(CO)CCC1)[C@H]1C[C@H](c2c(-c3ccc(F)cc3)[nH]c3c(F)cc(F)cc32)C1` [Compound 6], the IC50 was under 250 nM. Consider `CN1CCC(NC(=O)[C@H]2C[C@H](c3c(-c4ccc(F)cc4)[nH]c4c(F)cc(F)cc43)C2)C1=O` (stereo partly drawn) [Compound 7], for which the IC50 is 250 to 1000 nM. Take `O=C(NC(CO)CO)[C@H]1C[C@H](c2c(-c3ccc(F)cc3)[nH]c3c(F)cc(F)cc32)C1` [Compound 8]: the IC50 is under 250 nM.

For `O=C(O)CNC(=O)[C@H]1C[C@H](c2c(-c3ccc(F)cc3)[nH]c3c(F)cc(F)cc32)C1` [Compound 10], the IC50 is over 1000 nM. In the case of `CC(C)(NC(=O)[C@H]1C[C@H](c2c(-c3ccc(F)cc3)[nH]c3c(F)cc(F)cc32)C1)C(N)=O` [Compound 11], the IC50 was under 250 nM. As for `CO[C@H]1CCN(C(=O)[C@H]2C[C@H](c3c(-c4ccc(F)cc4)[nH]c4c(F)cc(F)cc43)C2)C1` [Compound 95], the IC50 was over 1000 nM.

For `O=C([C@H]1C[C@H](c2c(-c3ccc(F)cc3)[nH]c3c(F)cc(F)cc32)C1)N1CC(n2cccn2)C1` [Compound 96], the IC50 was over 1000 nM.

`O=C([C@H]1C[C@H](c2c(-c3ccc(F)cc3)[nH]c3c(F)cc(F)cc32)C1)N1C2CCC(C2)C1CO` (stereo partly drawn) [Compound 97]: the IC50 is over 1000 nM. With `O=C([C@H]1C[C@H](c2c(-c3ccc(F)cc3)[nH]c3c(F)cc(F)cc32)C1)N1C[C@H]2C[C@@]2(CO)C1` [Compound 98], the IC50 was over 1000 nM. Consider `O=C([C@H]1C[C@H](c2c(-c3ccc(F)cc3)[nH]c3c(F)cc(F)cc32)C1)N1C[C@@H]2[C@@H](CO)[C@@H]2C1` [Compound 99], for which the IC50 was over 1000 nM. Consider `O=C([C@H]1C[C@H](c2c(-c3ccc(F)cc3)[nH]c3c(F)cc(F)cc32)C1)N1CC[C@H](CO)[C@H](O)C1` [Compound 100], for which the IC50 is over 1000 nM. On to `O=C([C@H]1C[C@H](c2c(-c3ccc(F)cc3)[nH]c3c(F)cc(F)cc32)C1)N1CCCC1CCO` (stereo partly drawn) [Compound 101], for which the IC50 was 250 to 1000 nM.

`CC1(C)CN(C(=O)[C@H]2C[C@H](c3c(-c4ccc(F)cc4)[nH]c4c(F)cc(F)cc43)C2)CC1O` (stereo partly drawn) [Compound 102]: the IC50 was over 1000 nM. For `O=C([C@H]1C[C@H](c2c(-c3ccc(F)cc3)[nH]c3c(F)cc(F)cc32)C1)N1CCC2(COC2)C1` [Compound 103], the IC50 was over 1000 nM. Consider `O=C(NCCCO)[C@H]1C[C@H](c2c(-c3ccc(F)cc3)[nH]c3c(F)cc(F)cc32)C1` [Compound 104], for which the IC50 is under 250 nM. Take `O=C([C@H]1C[C@H](c2c(-c3ccc(F)cc3)[nH]c3c(F)cc(F)cc32)C1)N1CCC[C@H](O)C1` [Compound 105]: the IC50 is 250 to 1000 nM. On to `O=C([C@H]1C[C@H](c2c(-c3ccc(F)cc3)[nH]c3c(F)cc(F)cc32)C1)N1CC(O)C(N2CCOCC2)C1` (stereo partly drawn) [Compound 106], for which the IC50 was over 1000 nM. The same measure for `O=C([C@H]1C[C@H](c2c(-c3ccc(F)cc3)[nH]c3c(F)cc(F)cc32)C1)N1CCCC[C@@H]1CO` [Compound 107]: 250 to 1000 nM; for `O=C([C@H]1C[C@H](c2c(-c3ccc(F)cc3)[nH]c3c(F)cc(F)cc32)C1)N1CCC(CO)(CO)CC1` [Compound 108]: over 1000 nM.
